Experimental data published in patent US12590062B2, “PD-1/PD-L1 inhibitors” (Gilead Sciences, Inc., priority 2017, dated 2026).

These compounds were tested against T1, PD-1/PD-L1 interaction (Homo sapiens, UniProt Q9NZQ7) (assay: PD-1/PD-L1 NFAT reporter co-culture assay). Conditions: Jurkat PD-1 NFAT-luciferase cells co-cultured with aAPC-PD-L1 CHO cells, 6 hrs at 37° C.; read-out: EC50 NFAT Luciferase.
T1 construct: expressed in transfected cells; host or cells: CHO cells (aAPC-PD-L1) co-cultured with Jurkat cells overexpressing PD-1 and an NFAT-luciferase reporter
T1 sequence (Q9NZQ7 19-290): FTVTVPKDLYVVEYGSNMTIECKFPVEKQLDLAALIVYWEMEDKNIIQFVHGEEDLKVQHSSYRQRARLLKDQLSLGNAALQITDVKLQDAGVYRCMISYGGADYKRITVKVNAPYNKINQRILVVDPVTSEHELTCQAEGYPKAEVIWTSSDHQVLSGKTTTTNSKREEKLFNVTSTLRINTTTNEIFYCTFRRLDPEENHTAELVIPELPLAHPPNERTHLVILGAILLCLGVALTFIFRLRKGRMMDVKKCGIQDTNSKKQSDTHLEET
Format: cell-based
Summary of the method: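 Jurkat cells overexpressing PD-1 with NFAT-luciferase mixed with compounds and plated onto CHO aAPCs expressing anti-CD3 and PD-L1, RPMI with 2% FBS. Co-culture 6 h at 37 °C; luminescence read with ONE-Glo. EC50 from four-parameter fit.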

EC50 [nM] | SMILES
894 | COc1nc(OCc2cccc(-c3cccc(COc4nc(OC)c(CN5CC(NC(C)=O)C5)cc4Cl)c3C)c2C)c(Cl)cc1CN1CC(NC(C)=O)C1 [Example 37, N,N′-((((((2,2′-dimethyl-[1,1′-biphenyl]-3,3′-diyl)bis(methylene))bis(oxy))bis(5-chloro-2-methoxypyridine-6,3-diyl))bis(methylene))bis(azetidine-1,3-diyl))diacetamide]
19800 | COc1nc(OCc2cccc(-c3cccc(COc4nc(OC)c(CNC(CO)c5nn[nH]n5)cc4Cl)c3C)c2C)c(Cl)cc1CNC(CO)c1nn[nH]n1 (stereo not drawn) [Example 52, 2,2′-((((((2,2′-dimethyl-[1,1′-biphenyl]-3,3′-diyl)bis(methylene))bis(oxy))bis(5-chloro-2-methoxypyridine-6,3-diyl))bis(methylene))bis(azanediyl))bis(2-(2H-tetrazol-5-yl)ethan-1-ol)]
225 | COc1nc(OCc2cccc(-c3cccc(COc4nc(OC)c(CNCc5nnn[nH]5)cc4Cl)c3C)c2C)c(Cl)cc1CNCc1nnn[nH]1 [Example 169, 1,1′-((((2,2′-dimethyl-[1,1′-biphenyl]-3,3′-diyl)bis(methylene))bis(oxy))bis(5-chloro-2-methoxypyridine-6,3-diyl))bis(N-((1H-tetrazol-5-yl)methyl)methanamine)]
7720 | COc1nc(OCc2cccc(-c3cccc(COc4nc(OC)c(CNCc5c[nH]nn5)cc4Cl)c3C)c2C)c(Cl)cc1CNCc1c[nH]nn1 [Example 171, 1,1′-((((2,2′-dimethyl-[1,1′-biphenyl]-3,3′-diyl)bis(methylene))bis(oxy))bis(5-chloro-2-methoxypyridine-6,3-diyl))bis(N-((1H-1,2,3-triazol-4-yl)methyl)methanamine)]
1680 | COc1nc(OCc2cccc(-c3cccc(COc4nc(OC)c(CNC(C)C(=O)N(C)C)cc4Cl)c3C)c2C)c(Cl)cc1CNC(C)C(=O)N(C)C (stereo not drawn) [Example 83, 2,2′-((((((2,2′-dimethyl-[1,1′-biphenyl]-3,3′-diyl)bis(methylene))bis(oxy))bis(5-chloro-2-methoxypyridine-6,3-diyl))bis(methylene))bis(azanediyl))bis(N,N-dimethylpropanamide)]
1800 | COc1nc(OCc2cccc(-c3cccc(COc4nc(OC)c(CN[C@@H](C)C(N)=O)cc4Cl)c3C)c2C)c(Cl)cc1CN[C@@H](C)C(N)=O [Example 101, (2S,2′S)-2,2′-((((((2,2′-dimethyl-[1,1′-biphenyl]-3,3′-diyl)bis(methylene))bis(oxy))bis(5-chloro-2-methoxypyridine-6,3-diyl))bis(methylene))bis(azanediyl))dipropanamide]
384 | COc1nc(OCc2cccc(-c3cccc(COc4nc(OC)c(CN[C@@H]5CCC[C@H]5C(=O)O)cc4Cl)c3C)c2C)c(Cl)cc1CN[C@@H]1CCC[C@H]1C(=O)O [Example 75, (1R,1′R,2R,2′R)-2,2′-((((((2,2′-dimethyl-[1,1′-biphenyl]-3,3′-diyl)bis(methylene))bis(oxy))bis(5-chloro-2-methoxypyridine-6,3-diyl))bis(methylene))bis(azanediyl))bis(cyclopentane-1-carboxylic acid)]
1220 | COc1nc(OCc2cccc(-c3cccc(COc4nc(OC)c(CN[C@H]5CCCC[C@@H]5O)cc4Cl)c3C)c2C)c(Cl)cc1CN[C@H]1CCCC[C@@H]1O [Example 229, (1S,1′S,2S,2′S)-2,2′-((((((2,2′-dimethyl-[1,1′-biphenyl]-3,3′-diyl)bis(methylene))bis(oxy))bis(5-chloro-2-methoxypyridine-6,3-diyl))bis(methylene))bis(azanediyl))bis(cyclohexan-1-ol)]

Further lines, the compound ahead of its results:

SMILES | EC50 [nM]
COc1nc(OCc2cccc(-c3cccc(COc4nc(OC)c(CN5CC(O)C5)cc4Br)c3C)c2C)c(Br)cc1CN1CC(O)C1 [Example 255, 1,1′-(((((2,2′-dimethyl-[1,1′-biphenyl]-3,3′-diyl)bis(methylene))bis(oxy))bis(5-bromo-2-methoxypyridine-6,3-diyl))bis(methylene))bis(azetidin-3-ol)] | ≥ 50000
Cc1c(-c2ccc(OCCNC[C@H](O)CC(=O)O)cc2)cccc1-c1cccc(-c2ccc(OCCNC[C@H](O)CC(=O)O)cc2)c1C [Example 107, (3R,3′R)-4,4′-((((2′,2″-dimethyl-[1,1′:3′,1″:3″,1′″-quaterphenyl]-4,4′″-diyl)bis(oxy))bis(ethane-2,1-diyl))bis(azanediyl))bis(3-hydroxybutanoic acid)] | 35000
Cc1c(COc2nc(OCCc3cc[nH]n3)c(CNC[C@@H](O)CC(=O)O)cc2Br)cccc1-c1cccc(COc2nc(OCCc3cc[nH]n3)c(CNC[C@@H](O)CC(=O)O)cc2Br)c1C [Example 142, (3S,3′S)-4,4′-((((((2,2′-dimethyl-[1,1′-biphenyl]-3,3′-diyl)bis(methylene))bis(oxy))bis(2-(2-(1H-pyrazol-3-yl)ethoxy)-5-bromopyridine-6,3-diyl))bis(methylene))bis(azanediyl))bis(3-hydroxybutanoic acid)] | 235
Cc1c(COc2cc(OCc3cncc(C#N)c3)c(CNC[C@@H](O)CC(=O)O)cc2Cl)cccc1-c1cccc(-c2nc3ccc(CNC[C@@H](O)CC(=O)O)cc3s2)c1C [Example 286, (S)-4-(((2-(3′-((4-((((S)-3-carboxy-2-hydroxypropyl)amino)methyl)-2-chloro-5-((5-cyanopyridin-3-yl)methoxy)phenoxy)methyl)-2,2′-dimethyl-[1,1′-biphenyl]-3-yl)benzo[d]thiazol-6-yl)methyl)amino)-3-hydroxybutanoic acid] | 232
Cc1c(COc2cc(OCc3cccc(S(C)(=O)=O)c3)c(CN[C@@](C)(CO)C(=O)O)cc2Cl)cccc1-c1cccc(COc2cc(OCc3cccc(S(C)(=O)=O)c3)c(CN[C@@](C)(CO)C(=O)O)cc2Cl)c1C [Example 57, (2S,2′S)-2,2′-((((((2,2′-dimethyl-[1,1′-biphenyl]-3,3′-diyl)bis(methylene))bis(oxy))bis(5-chloro-2-((3-(methylsulfonyl)benzyl)oxy)-4,1-phenylene))bis(methylene))bis(azanediyl))bis(3-hydroxy-2-methylpropanoic acid)] | 351
CNC(=O)[C@](C)(CO)NCc1cc(Br)c(OCc2cccc(-c3cccc(COc4nc(OC)c(CN[C@@](C)(CO)C(=O)NC)cc4Br)c3C)c2C)nc1OC [Example 274, (2S,2′S)-2,2′-((((((2,2′-dimethyl-[1,1′-biphenyl]-3,3′-diyl)bis(methylene))bis(oxy))bis(5-bromo-2-methoxypyridine-6,3-diyl))bis(methylene))bis(azanediyl))bis(3-hydroxy-N,2-dimethylpropanamide)] | 1200
Cc1c(COc2nc(OCc3cccc(C#N)n3)c(CNC[C@@H](O)CC(=O)O)cc2Br)cccc1-c1cccc(COc2nc(OCc3cccc(C#N)n3)c(CNC[C@@H](O)CC(=O)O)cc2Br)c1C [Example 152, (3S,3′S)-4,4′-((((((2,2′-dimethyl-[1,1′-biphenyl]-3,3′-diyl)bis(methylene))bis(oxy))bis(5-bromo-2-((6-cyanopyridin-2-yl)methoxy)pyridine-6,3-diyl))bis(methylene))bis(azanediyl))bis(3-hydroxybutanoic acid)] | 594
COc1nc(OCc2cccc(-c3cccc(COc4nc(OC)c(CN[C@](C)(CO)C(=O)O)cc4C4CC4)c3C)c2C)c(C2CC2)cc1CN[C@](C)(CO)C(=O)O [Example 64, (2R,2′R)-2,2′-((((((2,2′-dimethyl-[1,1′-biphenyl]-3,3′-diyl)bis(methylene))bis(oxy))bis(5-cyclopropyl-2-methoxypyridine-6,3-diyl))bis(methylene))bis(azanediyl))bis(3-hydroxy-2-methylpropanoic acid)] | 9780
Cc1c(COc2cc(OCc3cncc(C#N)c3)c(CN[C@@H](C)C(=O)O)cc2Cl)cccc1-c1cccc(-c2ccc(OCCN[C@@H](C)C(=O)O)c(C(F)(F)F)c2)c1C [Example 95, (4-((4″-(2-(((S)-1-carboxyethyl)amino)ethoxy)-2,2′-dimethyl-3″-(trifluoromethyl)-[1,1′:3′,1″-terphenyl]-3-yl)methoxy)-5-chloro-2-((5-cyanopyridin-3-yl)methoxy)benzyl)-L-alanine] | 639
COc1nc(OCc2cccc(-c3cccc(COc4nc(OC)c(CN5CC[C@@H](O)C5)cc4Br)c3C)c2C)c(Br)cc1CN1CC[C@@H](O)C1 [Example 247, (3R,3′R)-1,1′-(((((2,2′-dimethyl-[1,1′-biphenyl]-3,3′-diyl)bis(methylene))bis(oxy))bis(5-bromo-2-methoxypyridine-6,3-diyl))bis(methylene))bis(pyrrolidin-3-ol)] | 776
COc1nc(OCc2cccc(-c3cccc(COc4nc(OC)c(CN[C@H]5CCCC[C@@H]5C(=O)O)cc4Cl)c3C)c2C)c(Cl)cc1CN[C@H]1CCCC[C@@H]1C(=O)O [Example 80, (1S,1′S,2S,2′S)-2,2′-((((((2,2′-dimethyl-[1,1′-biphenyl]-3,3′-diyl)bis(methylene))bis(oxy))bis(5-chloro-2-methoxypyridine-6,3-diyl))bis(methylene))bis(azanediyl))bis(cyclohexane-1-carboxylic acid)] | ≥ 50000
COc1nc(OCc2cccc(-c3cccc(COc4nc(OC)c(CN(C)CCN5CCOCC5)cc4Br)c3C)c2C)c(Br)cc1CN(C)CCN1CCOCC1 [Example 268, N,N′-(((((2,2′-dimethyl-[1,1′-biphenyl]-3,3′-diyl)bis(methylene))bis(oxy))bis(5-bromo-2-methoxypyridine-6,3-diyl))bis(methylene))bis(N-methyl-2-morpholinoethan-1-amine)] | 993
COc1nc(OCc2cccc(-c3cccc(COc4nc(OC)c(CN[C@@H](CCC(N)=O)C(=O)O)cc4Br)c3C)c2C)c(Br)cc1CN[C@@H](CCC(N)=O)C(=O)O [Example 115, (2S,2′S)-2,2′-((((((2,2′-dimethyl-[1,1′-biphenyl]-3,3′-diyl)bis(methylene))bis(oxy))bis(5-bromo-2-methoxypyridine-6,3-diyl))bis(methylene))bis(azanediyl))bis(5-amino-5-oxopentanoic acid)] | ≥ 50000
